Reference: publication PMC3144920, “Peptide Substrates for Rho-Associated Kinase 2 (Rho-Kinase 2/ROCK2)” (PLoS ONE, 2011)
Entries after “also recorded” stand apart in the source; their conditions may differ. Where a SMILES comes first, the peptide text is derived from it.

Key:
Type in all cases: biochemical
[1] = molecular target: T1, ROCK2 (Homo sapiens, UniProt O75116); test: Inhibition of ROCK2 phosphorylation of S6K substrate peptide by inhibitor peptides; conditions: competitive; S6K peptide (KRRRLASLR) as substrate, 1.25 µg/mL ROCK2, 100 µM ATP, MOPS pH 7.2; Dixon plot and Lineweaver–Burk plot
T1 construct: purchased Carna Biosciences, Kobe, Japan
Method: The phosphorylatable amino acid (threonine) of five peptide substrates (R4, R22, R133, R134, and R135) was replaced with alanine. […] Ki values were obtained from the Dixon plot and Lineweaver–Burk plot. Inhibitor peptides were added into 25 µL of buffer (5 mM MOPS at pH 7.2, 2.5 mM beta-glycerophosphate, 1 mM EGTA, 4 mM MgCl2, 0.05 mM DTT, and 100 µM ATP) containing S6K substrate peptide and 1.25 µg/mL ROCK2.

[2] = molecular target: T1, ROCK2; test: Kinetic analysis of peptide substrate phosphorylation by ROCK2 (Lineweaver–Burk plot)
Method: The kinase activity of recombinant ROCK2 (Carna Biosciences, Kobe, Japan), ERK1 (Upstate, Millipore, Temecula, CA, USA), PKA (Promega, Madison, WI, USA), and PKCα (Sigma–Aldrich, St. Louis, MO, USA) for the peptide substrates was determined by measuring ^32P transfer from [γ-^32P]ATP into substrate peptides according to manufacturer recommendations. Phosphorylation reactions by ROCK2 were carried out in 25 µL of buffer (5 mM 3-(N-morpholino)propanesulfonic acid (MOPS) at pH 7.2, 2.5 mM beta-glycerophosphate, 1 mM ethylene glycol tetra-acetic acid (EGTA), 4 mM MgCl2, 0.05 mM dithiothreitol (DTT), and 100 µM adenosine triphosphate (ATP)) containing peptides and 1.25 µg/ml ROCK2. For PKCα, phosphorylation reactions were carried out in 25 µL of buffer (20 mM HEPES at pH 7.4, 10 mM MgCl2, 1 mM CaCl2, 100 µM ATP, 40 µg/mL phosphatidylserine, and 20 µg/mL diacylglycerol) containing peptides and 0.5 µg/mL PKCα. Phosphorylation reactions by PKA were carried out in 25 µL of buffer (50 mM HEPES at pH 7.4, 1 mM CaCl2, 10 mM MgCl2, 100 µM ATP) containing peptides and 1.6 µg/mL PKA. For ERK1, phosphorylation reactions were carried out in 25 µL of buffer (25 mM Tris-HCl at pH 7.5, 20 µM EGTA, 15 mM magnesium acetate, and 100 µM ATP) containing peptides and 0.5 µg/mL ERK1. For each experimental condition, values for control reactions lacking substrate peptides were subtracted as blanks. The assay mixture was incubated for 10 min at 25°C, and the reaction terminated by the addition of 5 µL of 30% trichloroacetic acid (TCA). The reaction mixture (24 µL) was spotted onto P-81 phosphocellulose membranes. The membranes were washed thrice with 5% TCA, dried with acetone, and the radioactivity of each membrane determined by liquid scintillation counting. Kinetic analyses of enzyme activity were determined using the Lineweaver–Burk plot. […]

[3] = molecular target: T2, PKA (Bos taurus, UniProt P00517); test: Radiolabel assay using [γ-32P]ATP: phosphorylation of peptide substrates by PKA; conditions: 1.6 µg/mL PKA, 100 µM ATP, HEPES pH 7.4, 10 min at 25°C; Fig. 3, in words
T2 construct: purchased Promega, Madison, WI, USA
Method: (§1) The kinase activity of recombinant ROCK2 (Carna Biosciences, Kobe, Japan), ERK1 (Upstate, Millipore, Temecula, CA, USA), PKA (Promega, Madison, WI, USA), and PKCα (Sigma–Aldrich, St. Louis, MO, USA) for the peptide substrates was determined by measuring ^32P transfer from [γ-^32P]ATP into substrate peptides according to manufacturer recommendations. Phosphorylation reactions by ROCK2 were carried out in 25 µL of buffer (5 mM 3-(N-morpholino)propanesulfonic acid (MOPS) at pH 7.2, 2.5 mM beta-glycerophosphate, 1 mM ethylene glycol tetra-acetic acid (EGTA), 4 mM MgCl2, 0.05 mM dithiothreitol (DTT), and 100 µM adenosine triphosphate (ATP)) containing peptides and 1.25 µg/ml ROCK2. For PKCα, phosphorylation reactions were carried out in 25 µL of buffer (20 mM HEPES at pH 7.4, 10 mM MgCl2, 1 mM CaCl2, 100 µM ATP, 40 µg/mL phosphatidylserine, and 20 µg/mL diacylglycerol) containing peptides and 0.5 µg/mL PKCα. Phosphorylation reactions by PKA were carried out in 25 µL of buffer (50 mM HEPES at pH 7.4, 1 mM CaCl2, 10 mM MgCl2, 100 µM ATP) containing peptides and 1.6 µg/mL PKA. For ERK1, phosphorylation reactions were carried out in 25 µL of buffer (25 mM Tris-HCl at pH 7.5, 20 µM EGTA, 15 mM magnesium acetate, and 100 µM ATP) containing peptides and 0.5 µg/mL ERK1. For each experimental condition, values for control reactions lacking substrate peptides were subtracted as blanks. The assay mixture was incubated for 10 min at 25°C, and the reaction terminated by the addition of 5 µL of 30% trichloroacetic acid (TCA). The reaction mixture (24 µL) was spotted onto P-81 phosphocellulose membranes. The membranes were washed thrice with 5% TCA, dried with acetone, and the radioactivity of each membrane determined by liquid scintillation counting. Kinetic analyses of enzyme activity were determined using the Lineweaver–Burk plot.

[4] = molecular target: T3, PKCα (Homo sapiens, UniProt P17252); test: Radiolabel assay using [γ-32P]ATP: phosphorylation of peptide substrates by PKCα; conditions: Fig. 3, in words; for CPM for PKCα: 0.5 µg/mL PKCα, 100 µM ATP, HEPES pH 7.4, 10 min at 25°C
T3 construct: purchased Sigma–Aldrich, St. Louis, MO, USA
Method: as §1

[5] = molecular target: T4, ERK1 (Homo sapiens, UniProt P27361); test: Radiolabel assay using [γ-32P]ATP: phosphorylation of peptide substrates by ERK1; conditions: 0.5 µg/mL ERK1, 100 µM ATP, Tris-HCl pH 7.5, 10 min at 25°C; Fig. 3, in words
T4 construct: purchased Upstate, Millipore, Temecula, CA, USA
Method: as §1

T4 sequence (P27361 whole entry, species assumed): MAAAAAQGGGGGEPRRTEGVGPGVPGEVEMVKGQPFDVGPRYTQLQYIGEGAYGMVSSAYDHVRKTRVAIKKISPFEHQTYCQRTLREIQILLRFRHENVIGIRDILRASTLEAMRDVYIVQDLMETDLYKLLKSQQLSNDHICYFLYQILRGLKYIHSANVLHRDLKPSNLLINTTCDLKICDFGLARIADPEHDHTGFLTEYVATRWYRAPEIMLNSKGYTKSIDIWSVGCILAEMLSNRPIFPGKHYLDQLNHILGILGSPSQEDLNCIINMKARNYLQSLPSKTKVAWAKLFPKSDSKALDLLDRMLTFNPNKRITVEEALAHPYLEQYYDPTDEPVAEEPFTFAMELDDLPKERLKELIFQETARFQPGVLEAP
T1 sequence (O75116 1-553 limits assumed): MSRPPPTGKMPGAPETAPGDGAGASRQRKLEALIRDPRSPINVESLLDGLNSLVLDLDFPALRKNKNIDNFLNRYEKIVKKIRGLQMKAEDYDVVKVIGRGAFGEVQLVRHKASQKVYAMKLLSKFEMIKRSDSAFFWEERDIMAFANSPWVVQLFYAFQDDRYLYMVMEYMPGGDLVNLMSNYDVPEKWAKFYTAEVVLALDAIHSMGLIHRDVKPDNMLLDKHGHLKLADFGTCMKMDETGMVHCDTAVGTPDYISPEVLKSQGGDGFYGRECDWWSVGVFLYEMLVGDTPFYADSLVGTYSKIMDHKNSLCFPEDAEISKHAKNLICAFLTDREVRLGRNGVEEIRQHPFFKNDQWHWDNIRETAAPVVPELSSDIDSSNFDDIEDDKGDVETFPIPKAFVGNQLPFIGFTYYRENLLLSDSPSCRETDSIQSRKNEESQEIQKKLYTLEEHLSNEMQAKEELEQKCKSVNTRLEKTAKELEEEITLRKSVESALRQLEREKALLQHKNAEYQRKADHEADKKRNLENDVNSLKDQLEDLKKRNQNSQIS

Compound | Ki [1] [µM] | Km [2] [µM] | Vmax [2] [pmol/min/mg] | CPM for ROCK2 compared with PKA [3] | CPM for ROCK2 compared with PKCα [4] | CPM for ROCK2 compared with ERK1 [5] | CPM for PKCα [4]
CC[C@H](C)[C@H](NC(=O)[C@H](CCC(N)=O)NC(=O)[C@H](CCCNC(=N)N)NC(=O)[C@H](CC(C)C)NC(=O)[C@H](C)NC(=O)[C@H](CCCCN)NC(=O)[C@H](Cc1ccc(O)cc1)NC(=O)[C@H](CCCCN)NC(=O)[C@H](C)NC(=O)[C@@H](N)CCCNC(=N)N)C(=O)N[C@@H](CCCNC(=N)N)C(=O)O [R4 with alanine instead of threonine] (H-RAKYKALRQIR-OH) | 86.6 | – | – | – | – | – | –
CSCC[C@H](NC(=O)[C@H](Cc1c[nH]c2ccccc12)NC(=O)[C@H](Cc1ccc(O)cc1)NC(=O)[C@@H]1CCCN1C(=O)[C@H](CC(N)=O)NC(=O)CNC(=O)[C@@H](NC(=O)[C@@H](NC(=O)[C@H](C)NC(=O)[C@H](Cc1ccc(O)cc1)NC(=O)[C@H](CCCNC(=N)N)NC(=O)[C@H](CCCCN)NC(=O)[C@H](CCCCN)NC(=O)[C@H](CCCNC(=N)N)NC(=O)[C@H](C)NC(=O)[C@@H]1CCCN1C(=O)[C@@H](N)CCCCN)C(C)C)C(C)C)C(=O)O [R22 with alanine instead of threonine] (H-KPARKKRYAVVGNPYWM-OH) | 11.6 | – | – | – | – | – | –
CSCC[C@H](NC(=O)[C@H](Cc1c[nH]c2ccccc12)NC(=O)[C@H](Cc1ccc(O)cc1)NC(=O)[C@@H]1CCCN1C(=O)[C@H](CC(N)=O)NC(=O)CNC(=O)[C@@H](NC(=O)[C@@H](NC(=O)[C@H](C)NC(=O)[C@H](Cc1ccc(O)cc1)NC(=O)[C@H](CCCNC(=N)N)NC(=O)[C@H](CCCCN)NC(=O)[C@H](CCCCN)NC(=O)[C@H](CCCNC(=N)N)NC(=O)[C@H](CC(=O)O)NC(=O)[C@H](CO)NC(=O)[C@@H](N)CCCCN)C(C)C)C(C)C)C(=O)O [R133 with alanine instead of threonine] (H-KSDRKKRYAVVGNPYWM-OH; N-terminus and C-terminus assumed) | > 100 | – | – | – | – | – | –
CSCC[C@H](NC(=O)[C@H](Cc1c[nH]c2ccccc12)NC(=O)[C@H](Cc1ccc(O)cc1)NC(=O)[C@@H]1CCCN1C(=O)[C@H](CC(N)=O)NC(=O)CNC(=O)[C@@H](NC(=O)[C@@H](NC(=O)[C@H](C)NC(=O)[C@H](Cc1ccc(O)cc1)NC(=O)[C@H](CCCNC(=N)N)NC(=O)[C@H](CCCCN)NC(=O)[C@H](CCCCN)NC(=O)[C@H](CCCNC(=N)N)NC(=O)[C@H](C)NC(=O)[C@H](CO)NC(=O)[C@@H](N)CCCCN)C(C)C)C(C)C)C(=O)O [R134 with alanine instead of threonine] (H-KSARKKRYAVVGNPYWM-OH) | 29.2 | – | – | – | – | – | –
CSCC[C@H](NC(=O)[C@H](Cc1c[nH]c2ccccc12)NC(=O)[C@H](Cc1ccc(O)cc1)NC(=O)[C@@H]1CCCN1C(=O)[C@H](CC(N)=O)NC(=O)CNC(=O)[C@@H](NC(=O)[C@@H](NC(=O)[C@H](C)NC(=O)[C@H](Cc1ccc(O)cc1)NC(=O)[C@H](CCCNC(=N)N)NC(=O)[C@H](CCCCN)NC(=O)[C@H](CCCCN)NC(=O)[C@H](CCCNC(=N)N)NC(=O)[C@H](CC(=O)O)NC(=O)[C@H](C)NC(=O)[C@@H](N)CCCCN)C(C)C)C(C)C)C(=O)O [R135 with alanine instead of threonine] (H-KADRKKRYAVVGNPYWM-OH; N-terminus and C-terminus assumed) | > 100 | – | – | – | – | – | –
KADRKKRYTVVGNPYWM [R135, peptide substrate for ROCK2 …, origin LIMK2] | – | 3.2 | 8.6 | higher CPM levels for ROCK2 than the other enzymes | much higher CPM for ROCK2 than that of PKCα; also recorded: higher CPM levels for ROCK2 than the other enzymes | higher CPM levels for ROCK2 than the other enzymes | –
KPARKKRYTVVGNPYWM [R22, peptide substrate for ROCK2 …, origin LIM-kinase 1 (LIMK1)] | – | 1.9 | 10.3 | higher CPM levels for ROCK2 than the other enzymes | much higher CPM for ROCK2 than that of PKCα; also recorded: higher CPM levels for ROCK2 than the other enzymes | higher CPM levels for ROCK2 than the other enzymes | –
KRRRLASLR [S6K, synthetic peptide S6K (…) used as a control for ROCK2, reference compound] | – | 3.1 | 23.1 | – | – | – | –
KSARKKRYTVVGNPYWM [R134, peptide substrate for ROCK2 …, origin LIMK2] | – | 3.3 | 14.9 | – | – | – | high CPM
KSDRKKRYTVVGNPYWM [R133, peptide substrate for ROCK2 …, origin LIMK2] | – | 3.6 | 10.0 | higher CPM levels for ROCK2 than the other enzymes | much higher CPM for ROCK2 than that of PKCα; also recorded: higher CPM levels for ROCK2 than the other enzymes | higher CPM levels for ROCK2 than the other enzymes | –
RAKYKTLRQIR [R4, peptide substrate for ROCK2 …, origin ERM family (Ezrin/ Radixin/ Moesin)] | – | 1.7 | 14.2 | – | – | – | high CPM
